Experiment [1] has as its target T1, human recombinant kinase full-length AKT1 E17K (Homo sapiens, UniProt P31749, E17K).
T1 construct: Purified human recombinant kinase full-length AKT1 E17K was expressed in insect cells; made in house; host or cells: insect cells
Description: AKT1 E17K kinase assay (TR-FRET, Lance). Format: biochemical. The conditions noted are these: 0.6 nM AKT1 E17K, 50 nM Ulight-CREBtide, either 50 μM ATP or 2 mM ATP, 60 min at RT. The method, boiled down:
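Full-length AKT1 E17K from insect cells, PDPK1-activated, at 0.6 nM with 50 nM Ulight-CREBtide and 50 μM or 2 mM ATP, pH 7.5, 1% DMSO. Enzyme and compound preincubated 15 min, reaction run 60 min at RT; Eu-anti-phospho-CREB (Ser133) TR-FRET 665/620 ratio, 10-point curve, IC50 by 4-parameter fit.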

The target of experiment [2] is T2, human recombinant kinase full-length wildtype AKT1 (Homo sapiens, UniProt P31749).
T2 construct: Purified human recombinant kinase full-length wildtype AKT1 was expressed in insect cells; made in house; host or cells: insect cells
T2 sequence (P31749 whole entry): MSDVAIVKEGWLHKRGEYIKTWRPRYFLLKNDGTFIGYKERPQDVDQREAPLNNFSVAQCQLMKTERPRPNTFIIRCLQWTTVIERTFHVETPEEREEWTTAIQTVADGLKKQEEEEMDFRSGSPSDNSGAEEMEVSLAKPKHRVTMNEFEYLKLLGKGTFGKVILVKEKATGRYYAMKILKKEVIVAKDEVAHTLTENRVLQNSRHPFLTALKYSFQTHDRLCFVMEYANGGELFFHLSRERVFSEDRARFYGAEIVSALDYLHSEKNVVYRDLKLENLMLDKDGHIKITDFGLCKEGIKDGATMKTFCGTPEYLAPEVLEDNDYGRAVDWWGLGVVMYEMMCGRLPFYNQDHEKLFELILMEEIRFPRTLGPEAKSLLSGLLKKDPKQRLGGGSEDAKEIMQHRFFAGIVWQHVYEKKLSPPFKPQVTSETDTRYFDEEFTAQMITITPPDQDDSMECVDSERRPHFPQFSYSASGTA
The experiment in a line: AKT1 kinase assay (wildtype, TR-FRET, Lance). Format: biochemical. The conditions noted are these: 0.6 nM wildtype AKT1, 50 nM Ulight-CREBtide, either 50 μM ATP or 2 mM ATP, 60 min at RT. The method, boiled down: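 Insect-cell-expressed full-length human AKT1, PDPK1-activated (0.6 nM), preincubated with compound 15 min at RT, then reacted 60 min at RT with 50 nM ULight-CREBtide and 50 μM or 2 mM ATP (pH 7.5, 1% DMSO). Phospho-CREBtide read by Eu-anti-phospho-Ser133 TR-FRET (665/620 ratio); IC50 from 10-point 4-parameter fit.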
In general terms: TR-FRET usually uses a lanthanide donor and a delayed reading to cut background.

SMILES strings stand for the structures.

T1 sequence (P31749 whole entry E17K): as the sequence (P31749 whole entry) above, with E17K counted along it

One may read the IC50 as the concentration that inhibits the measured activity by half. `CNS(=O)(=O)C1CCC(CN2CC(c3ccc(-n4c(-c5cccnc5N)nc5ccc(-c6ccccc6)nc54)cc3)C2)CC1` (centres unmarked) [Compound I-152]: the values for the IC50 in experiment [1] and in experiment [2] were 500 to 2000 nM and below 20000 nM, respectively.

Turning to `Nc1ncccc1-c1nc2ccc(-c3ccccc3)nc2n1-c1ccc(C2CCN(CC34CCC(C(=O)O)(CC3)CC4)CC2)cc1` [Compound I-195], the IC50 is 500 to 2000 nM in experiment [1] and below 20000 nM in experiment [2].

Consider `Nc1ncccc1-c1nc2ccc(-c3ccccc3)nc2n1-c1ccc(NC(=O)C23CCC(C(=O)O)(C2)C3)nc1` [Compound I-9, 4-((5-(2-(2-aminopyridin-3-yl)-5-phenyl-3H-imidazo[4,5-b]pyridin-3-yl)pyridin-2-yl)carbamoyl)bicyclo[2.1.1]hexane-1-carboxylic acid], for which the IC50 was 500 to 2000 nM in experiment [1] and below 20000 nM in experiment [2].

In the case of `Cc1cc(C2CN(CC3CC4(C3)CC(C(=O)O)C4)C2)ccc1-n1c(-c2cccnc2N)nc2ccc(-c3ccccc3)cc21` (centres unmarked) [Compound I-224], the IC50 was at least 2000 nM in experiment [1] and below 20000 nM in experiment [2].

As to `CN(Cc1ccc(-n2c(-c3cccnc3N)nc3ccc(-c4ccccc4)nc32)cc1)C1CC[C@@H](C(=O)O)C1` (some centres unmarked) [Compound I-173], the IC50 was 500 to 2000 nM in experiment [1] and below 20000 nM in experiment [2].

Consider `CNC(=O)[C@H]1CC[C@H](C(=O)Nc2ccc(-n3c(-c4cccnc4N)nc4ccc(-c5ccccc5)nc43)c(C)n2)CC1` [Compound I-141, (1r,4r)-N1-(5-(2-(2-aminopyridin-3-yl)-5-phenyl-3H-imidazo[4,5-b]pyridin-3-yl)-6-methylpyridin-2-yl)-N4-methylcyclohexane-1,4-dicarboxamide], for which the IC50 in experiment [1] was 500 to 2000 nM; in experiment [2], below 20000 nM.

For the compound `Nc1ncccc1-c1nc2ccc(-c3ccccc3)nc2n1-c1ccc(CCN2CCC(C(=O)O)C2)cc1` (centres unmarked) [Compound I-159], the results for the IC50 in experiment [1] and in experiment [2] were below 500 nM and below 20000 nM, respectively.

With `Nc1ncccc1-c1nc2ccc(C3CCCC3)nc2n1-c1ccc(NC(=O)[C@H]2CC[C@H](C(=O)O)CC2)nc1` [Compound I-120, (1r,4r)-4-((5-(2-(2-aminopyridin-3-yl)-5-cyclopentyl-3H-imidazo[4,5-b]pyridin-3-yl)pyridin-2-yl)carbamoyl) cyclohexane-1-carboxylic acid], the IC50 is 500 to 2000 nM in experiment [1] and below 20000 nM in experiment [2].

In the case of `Nc1ncccc1-c1nc2ccc(-c3ccccc3)nc2n1-c1c(F)cc(C2CN(C[C@H]3CC[C@H](C(=O)O)CC3)C2)cc1F` [Compound I-208], the IC50 in experiment [1] was 500 to 2000 nM; in experiment [2], below 20000 nM.

With `Nc1ncccc1-c1nc2ccc(-c3ccc(F)cc3)nc2n1-c1ccc(C2CN(C[C@H]3CC[C@H](C(=O)O)CC3)C2)cc1` [Compound I-66, (1r,4r)-4-((3-(4-(2-(2-aminopyridin-3-yl)-5-(4-fluorophenyl)-3H-imidazo[4,5-b]pyridin-3-yl)phenyl)azetidin-1-yl)methyl)cyclohexane-1-carboxylic acid], the results for the IC50 in experiment [1] and in experiment [2] were 500 to 2000 nM and below 20000 nM, respectively.

`CC1(C(=O)O)CCN(Cc2ccc(-n3c(-c4cccnc4N)nc4ccc(-c5ccccc5)nc43)cc2)CC1` [Compound I-86, 1-[[4-[2-(2-amino-3-pyridyl)-5-phenyl-imidazo[4,5-b]pyridin-3-yl]phenyl]methyl]-4-methyl-piperidine-4-carboxylic acid]: the IC50 is 500 to 2000 nM in experiment [1] and below 20000 nM in experiment [2].

As to `Nc1ncccc1-c1nc2ccc(-c3ccccc3)nc2n1-c1ccc(CN[C@H]2CC[C@@H](C(=O)O)CC2)cc1` [Compound I-91, (1s,4s)-4-((4-(2-(2-aminopyridin-3-yl)-5-phenyl-3H-imidazo[4,5-b]pyridin-3-yl)benzyl)amino)cyclohexane-1-carboxylic acid], the IC50 in experiment [1] was below 500 nM; in experiment [2], below 20000 nM.

Regarding `Nc1ncccc1-c1nc2ccc(-c3ccccc3)nc2n1-c1ccc(NC[C@H]2CC[C@@H](C(=O)O)CC2)nc1` [Compound I-114, (1s,4s)-4-(((5-(2-(2-aminopyridin-3-yl)-5-phenyl-3H-imidazo[4,5-b]pyridin-3-yl)pyridin-2-yl)amino)methyl)cyclohexane-1-carboxylic acid], the IC50 in experiment [1] was 500 to 2000 nM; in experiment [2] it was below 20000 nM.

`Nc1ncccc1-c1nc2ccc(-c3ccccc3)nc2n1-c1ccc(C2CN(C[C@H]3CC[C@@H](C(=O)O)CC3)C2)c(F)c1` [Compound I-63, (1s,4s)-4-((3-(4-(2-(2-aminopyridin-3-yl)-5-phenyl-3H-imidazo[4,5-b]pyridin-3-yl)-2-fluorophenyl)azetidin-1-yl)methyl)cyclohexane-1-carboxylic acid]: the IC50 in experiment [1] was 500 to 2000 nM; in experiment [2], below 20000 nM.

`Nc1ncccc1-c1nc2ccc(-c3ccccc3)nc2n1-c1ccc(NC(=O)N2CCC(C(=O)O)CC2)cc1` [Compound I-53, 1-[[4-[2-(2-amino-3-pyridyl)-5-phenyl-imidazo[4,5-b]pyridin-3-yl]phenyl]carbamoyl]piperidine-4-carboxylic acid]: the IC50 is below 500 nM in experiment [1] and below 20000 nM in experiment [2].

Take `Cc1cc(C2CN(CC3CC4CC(C(=O)O)CC4C3)C2)ccc1-n1c(-c2cccnc2N)nc2ccc(-c3ccccc3F)nc21` (centres unmarked) [Compound I-201]: the IC50 in experiment [1] is below 500 nM; in experiment [2] it was below 20000 nM.

As to `Nc1ncccc1-c1nc2ccc(-c3ccccc3)nc2n1-c1ccc(C2CCN(C(=O)[C@H]3CC[C@H](C(=O)O)CC3)CC2)cc1` [Compound I-198], the IC50 in experiment [1] was below 500 nM; in experiment [2], below 20000 nM.

As to `Cc1nc(NC(=O)C2CCC(C(=O)O)CC2)ccc1-n1c(-c2cccnc2N)nc2ccc(-c3ccccc3)nc21` (centres unmarked) [Compound I-108, 4-((5-(2-(2-aminopyridin-3-yl)-5-phenyl-3H-imidazo[4,5-b]pyridin-3-yl)-6-methylpyridin-2-yl)carbamoyl)cyclohexane-1-carboxylic acid], the IC50 in experiment [1] was 500 to 2000 nM; in experiment [2] it was below 20000 nM.

In the case of `Nc1ncccc1-c1nc2ccc(-c3ccccc3)nc2n1-c1ccc(C2CCN(C(=O)[C@H]3CC[C@@H](C(=O)O)CC3)CC2)cc1` [Compound I-199], the figures for the IC50 in experiment [1] and in experiment [2] were below 500 nM and below 20000 nM, respectively.

For `Nc1ncccc1-c1nc2ccc(-c3ccccc3)nc2n1-c1ccc(NC(=O)[C@H]2CC[C@H](C(N)=O)CC2)nc1` [Compound I-115, (1r,4r)-N-(5-(2-(2-aminopyridin-3-yl)-5-phenyl-3H-imidazo[4,5-b]pyridin-3-yl)pyridin-2-yl)cyclohexane-1,4-dicarboxamide], the figures for the IC50 in experiment [1] and in experiment [2] were below 500 nM and below 20000 nM, respectively.

Consider `Nc1ncccc1-c1nc2ccc(-c3ccccc3)nc2n1-c1ccc(C2CN(C[C@@H]3CC[C@H](C(=O)O)C3)C2)cc1` [Compound I-58, (1S,3R)-3-((3-(4-(2-(2-aminopyridin-3-yl)-5-phenyl-3H-imidazo[4,5-b]pyridin-3-yl)phenyl)azetidin-1-yl)methyl)cyclopentane-1-carboxylic acid], for which the IC50 was below 500 nM in experiment [1] and below 20000 nM in experiment [2].

For `Nc1ncccc1-c1nc2ccc(-c3ccccc3F)nc2n1-c1ccc([C@H]2CCN(C[C@H]3CC[C@@H](C(=O)O)CC3)C2)cc1` (single isomer, unassigned) [Compound I-228], the IC50 in experiment [1] is 500 to 2000 nM; in experiment [2] it was below 20000 nM.

Turning to `Nc1ncccc1-c1nc2ccc(-c3ccccc3)nc2n1-c1ccc(C(=O)N2CCC(C(=O)O)CC2)nc1` [Compound I-22, 1-(5-(2-(2-aminopyridin-3-yl)-5-phenyl-3H-imidazo[4,5-b]pyridin-3-yl)picolinoyl)piperidine-4-carboxylic acid], the IC50 was at least 2000 nM in experiment [1] and 20000 to 80000 nM in experiment [2].

For the compound `Nc1ncccc1-c1nc2ccc(-n3cccn3)nc2n1-c1ccc(NC(=O)[C@H]2CC[C@H](C(=O)O)CC2)nc1` [Compound I-41, (1r,4r)-4-((5-(2-(2-aminopyridin-3-yl)-5-(1H-pyrazol-1-yl)-3H-imidazo[4,5-b]pyridin-3-yl)pyridin-2-yl)carbamoyl)cyclohexane-1-carboxylic acid], the IC50 in experiment [1] is below 500 nM; in experiment [2] it was below 20000 nM.

Take `Cc1cc(CN(C)[C@H]2CC[C@H](C(=O)O)CC2)ccc1-n1c(-c2cccnc2N)nc2ccc(-c3ccccc3)nc21` [Compound I-178]: the IC50 was at least 2000 nM in experiment [1] and below 20000 nM in experiment [2].

On to `Nc1ncccc1-c1nc2ccc(-c3ccccc3)nc2n1-c1ccc(NCC2CCC(C(=O)O)CC2)nc1` (centres unmarked) [Compound I-12, 4-(((5-(2-(2-aminopyridin-3-yl)-5-phenyl-3H-imidazo[4,5-b]pyridin-3-yl)pyridin-2-yl)amino)methyl)cyclohexane-1-carboxylic acid], for which the figures for the IC50 in experiment [1] and in experiment [2] were below 500 nM and below 20000 nM, respectively.

In the case of `Cc1cc(C2CN(CC34CCC(C(=O)O)(CC3)CC4)C2)ccc1-n1c(-c2cccnc2N)nc2ccc(-c3ccccc3F)nc21` [Compound I-200], the IC50 in experiment [1] is 500 to 2000 nM; in experiment [2] it was below 20000 nM.

On to `Cc1cc(C2CN(C[C@H]3CC[C@H](C(=O)O)CC3)C2)ccc1-n1c(-c2cccnc2N)nc2ccc(-c3ccccc3)nc21` [Compound I-139, (1r,4r)-4-((3-(4-(2-(2-aminopyridin-3-yl)-5-phenyl-3H-imidazo[4,5-b]pyridin-3-yl)-3-methylphenyl)azetidin-1-yl)methyl)cyclohexane-1-carboxylic acid], for which the IC50 in experiment [1] was below 500 nM; in experiment [2] it was below 20000 nM.

The record behind these values is patent publication US20260200920A1, “SUBSTITUTED AMINOPYRIDINE COMPOUNDS FOR USE AS AKT1 INHIBITORS” (Atavistik Bio, Inc., priority 2023, published 2026).
